Experimental data: article PMC5412352 (International Journal of Molecular Sciences, 2017)
Where two headings read alike, the source gives them in different places.

Assays:
[1] = molecular target: T1, hGhrR (COS7 cells stably transfected with hGhrR) (Homo sapiens, UniProt Q92847); test: Inositol phosphate accumulation assay, antagonistic potency with 10^-8 M ghrelin; assay type: cell-based; details: for Emax: COS-7, read-out: Emax (antagonistic efficacy)
T1 construct: expressed in transfected cells
Experimental: Antagonistic properties at the hGhrR
antagonistic potency in an inositol phosphate accumulation assay (Table S1). The receptor was
Table S1. Inositol phosphate accumulation assay to determine antagonistic potencies of candidate
Compounds were analyzed by inositol phosphate accumulation in COS7 cells stably

[2] = HPLC-based chromatographic hydrophobicity index on immobilized artificial membranes (CHI IAM); assay type: physicochemical; details: IAM PC DD2 column, acetonitrile / 50 mM ammonium acetate gradient
Excerpt: Physicochemical properties of a drug such as lipophilicity and non-specific binding to membranes and plasma proteins are crucial parameters of a potential radiotracer, in particular if it is supposed to pass the blood brain barrier (BBB). The lipophilicity (logD7.4) was estimated using the commercially available ACD/Labs-12.5 software and the non-specific binding was estimated by the high-performance liquid chromatography (HPLC)-based hydrophobicity index at immobilized artificial membranes (CHI IAM) for seven fluorine substituted candidate molecules and (S)-13 without fluorine (Table 3).
The chromatographic hydrophobicity index on immobilized artificial membranes (CHI IAM) was experimentally determined by a HPLC method described by Valko and co-workers using a IAM PC DD2 column (100 × 4.6 mm, […], Regis Technologies, IL, USA), a gradient of acetonitrile, and 50 mM ammonium acetate as eluent and acetanilide, acetophenone, 1,4-dinitrobenzene, anisole propiophenone, valerophenone, and octanophenone as references.

human α3β4 nAChR = molecular target: T2, human α3β4 nAChR (Homo sapiens, UniProt P30926+P32297); test: Selectivity radioligand displacement, [3H]epibatidine, transfected HEK cells; assay type: binding; details: read-out: Ki at α3β4 nAChRs
T2 construct: expressed in transfected cells; host or cells: HEK cells (by courtesy of Dominik Feuerbach, Novartis), homogenate
Experimental: […]
(§1) The incubations were terminated by rapid filtration via glass-fiber filters presoaked in PEI (0.3%, 60 min at rt), and the filter-bound radioactivity was counted by liquid scintillation counting (Tricarb, PerkinElmer).

[3] = molecular target: hGhrR (COS7 cells stably expressing hGhrR-eYFP) (Homo sapiens, UniProt Q92847); test: cell-based; details: for Emax: COS-7, mean ± SEM, refers to ghrelin Emax as 100%, 0% = constitutive receptor activity
Experimental: For that purpose, the inositol phosphate accumulation assay was used [43, 44].
Briefly, 60,000 to 80,000 cells/well of COS7 cells, stably expressing the fusion protein hGhrR-eYFP, were seeded in 48-well plates in Dulbecco’s modified Eagle’s medium (DMEM) with 10% fetal calf serum (FCS) and 0.4 mg/mL hygromycin B. The next day, the cells were labeled with [2-^3H]-myo-inositol (2 µCi/mL, PerkinElmer). […] Cell debris was removed and the supernatant purified on an anion-exchange resin (BioRad, Hercules, CA, USA). The obtained data were analyzed with GraphPad Prism 5.0 (GraphPad Software, San Diego, CA, USA). […] EC50/IC50 values were calculated from at least three independent experiments. Emax is defined as the difference between maximal and minimal effect in presence of the compound.

[4] = molecular target: human GhrR (hGhrR-eYFP, HEK293 cell membranes) (Homo sapiens, UniProt Q92847); test: Competitive radioligand binding assay with [125I-His9]ghrelin at hGhrR membranes; details: for fold higher IC50 than (S)-9: hGhrR binding IC50 relative to starting compound (S)-9
Experimental: Each concentration was tested in duplicate. The membrane-bound radioligand was trapped on a Filtermat B (PerkinElmer) pre-soaked with 0.1% polyethylenimine in H2O by using a filtermat harvester (PerkinElmer). After drying for 20 min at 55 °C, a Meltilex scintillation sheet (PerkinElmer) was melted onto the filtermat and the samples were counted in a Microbeta scintillation counter (PerkinElmer).

rat σ2 receptor = molecular target: T3, rat σ2 receptor (Rattus norvegicus, UniProt Q5U3Y7); test: Selectivity radioligand displacement, [3H]DTG, rat liver homogenate; assay type: binding; details: [3H]DTG + 1 µM dextrallorphan
T3 construct: rat σ2 receptor = rat liver homogenate; from tissue; host or cells: rat liver homogenate
T3 sequence (Q5U3Y7 1-176): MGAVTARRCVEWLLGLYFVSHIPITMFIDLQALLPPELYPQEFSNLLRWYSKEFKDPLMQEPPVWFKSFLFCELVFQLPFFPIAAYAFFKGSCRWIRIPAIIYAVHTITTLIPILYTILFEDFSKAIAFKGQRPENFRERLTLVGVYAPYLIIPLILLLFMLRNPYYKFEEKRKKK
Experimental: […]
as §1

[5] = 5 min pre-stimulation with compound, then 10^-8 M ghrelin, read-out: IC50 (antagonistic potency)
[6] = pEC50, mean ± SEM, 2 h stimulation in absence of ghrelin
[7] = EC50, 2 h stimulation in absence of ghrelin, COS7-hGhrR

Sequence of hGhrR (COS7 cells stably expressing hGhrR-eYFP) (Q92847 whole entry): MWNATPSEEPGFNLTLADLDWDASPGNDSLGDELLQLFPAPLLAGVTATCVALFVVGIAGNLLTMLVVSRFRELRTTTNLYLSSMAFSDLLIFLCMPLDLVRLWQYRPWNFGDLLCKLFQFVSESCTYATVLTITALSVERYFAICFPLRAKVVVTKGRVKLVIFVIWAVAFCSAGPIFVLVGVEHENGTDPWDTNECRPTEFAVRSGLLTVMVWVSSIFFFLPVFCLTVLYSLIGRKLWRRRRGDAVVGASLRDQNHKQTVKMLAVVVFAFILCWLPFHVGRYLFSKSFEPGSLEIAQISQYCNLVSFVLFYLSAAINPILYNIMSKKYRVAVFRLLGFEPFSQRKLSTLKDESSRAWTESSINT
Sequence of human GhrR (hGhrR-eYFP, HEK293 cell membranes) (Q92847 whole entry): as above
T1 sequence (Q92847 whole entry): as above
T2 sequence (P32297 32-505): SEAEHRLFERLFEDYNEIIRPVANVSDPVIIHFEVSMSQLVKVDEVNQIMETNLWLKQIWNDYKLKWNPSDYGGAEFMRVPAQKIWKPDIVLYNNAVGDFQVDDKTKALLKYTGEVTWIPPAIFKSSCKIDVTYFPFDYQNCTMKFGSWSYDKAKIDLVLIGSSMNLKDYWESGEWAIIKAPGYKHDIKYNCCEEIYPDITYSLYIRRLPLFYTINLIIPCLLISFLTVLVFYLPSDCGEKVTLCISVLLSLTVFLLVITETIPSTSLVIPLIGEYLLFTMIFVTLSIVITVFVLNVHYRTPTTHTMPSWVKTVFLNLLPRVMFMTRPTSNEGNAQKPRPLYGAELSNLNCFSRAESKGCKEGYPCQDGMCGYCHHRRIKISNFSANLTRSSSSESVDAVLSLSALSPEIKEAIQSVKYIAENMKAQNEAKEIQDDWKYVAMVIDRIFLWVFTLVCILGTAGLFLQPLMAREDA
T2 sequence (P30926 22-498): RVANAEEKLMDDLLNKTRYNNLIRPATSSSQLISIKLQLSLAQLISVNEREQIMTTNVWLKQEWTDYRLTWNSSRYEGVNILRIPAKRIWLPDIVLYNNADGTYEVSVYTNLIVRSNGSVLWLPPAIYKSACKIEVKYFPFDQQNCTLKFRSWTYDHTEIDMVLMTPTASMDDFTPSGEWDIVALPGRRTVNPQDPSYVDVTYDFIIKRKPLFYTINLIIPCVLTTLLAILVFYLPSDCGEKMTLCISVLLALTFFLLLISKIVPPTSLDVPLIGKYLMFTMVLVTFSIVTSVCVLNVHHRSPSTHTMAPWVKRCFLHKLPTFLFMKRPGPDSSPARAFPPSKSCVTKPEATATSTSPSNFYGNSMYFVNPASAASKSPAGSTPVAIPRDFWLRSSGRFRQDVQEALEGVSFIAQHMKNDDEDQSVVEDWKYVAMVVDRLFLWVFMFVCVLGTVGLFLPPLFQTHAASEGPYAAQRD

With `Cc1nc2ccc(Oc3ccc(Br)cc3F)nc2c(=O)n1C[C@H]1CCCN(CCCF)C1` [(S)-11, (S)-6-(4-Bromo-2-fluorophenoxy)-3-((1-(3-fluoropropyl)piperidin-3-yl)methyl)-2-methylpyrido[3,2-d]pyrimidin-4(3H)-one] the IC50 [1, 5] was 0.349 µM, the Emax [1] was 56 ± 10% and the “CHI IAM” value [2] was 42.2. It also gave a Ki (human α3β4 nAChR) of 0.027 ± 0.008 µM, an Emax [3] of roughly 60% and an EC50 [3, 6] of 0.00288 µM. The IC50 [4] was 0.066 µM and the “fold higher IC50 than (S)-9” value [4] was “about 30 fold”.

For `Cc1nc2ccc(Oc3ccc(Br)cc3F)nc2c(=O)n1C[C@H]1CCCN(CCF)C1` [(S)-10, (S)-6-(4-Bromo-2-fluorophenoxy)-3-((1-(2-fluoroethyl)piperidin-3-yl)methyl)-2-methylpyrido[3,2-d]pyrimidin-4(3H)-one], the IC50 [1, 5] was 0.345 µM, the Emax [1] was 22 ± 4% and the “CHI IAM” value [2] was 39.6. The Emax [3] was roughly 60%, the EC50 [3, 6] was 0.00158 µM and the IC50 [4] was 0.069 µM. For the same molecule, the “fold higher IC50 than (S)-9” value [4] was “about 30 fold”.

With `Cc1nc2ccc(Oc3ccc(Br)cc3F)nc2c(=O)n1C[C@@H]1CCCN(C(C)C)C1` [(R)-9, (R)-6-(4-Bromo-2-fluorophenoxy)-3-((1-isopropylpiperidin-3-yl)methyl)-2-methylpyrido[3,2-d]pyrimidin-4(3H)-one] the IC50 [1, 5] was 0.0175 µM, the Emax [1] was 45 ± 5% and the Ki (rat σ2 receptor) was 0.053 ± 0.007 µM. The “CHI IAM” value [2] was 42.8, the Emax [3] was roughly 60% and the EC50 [3, 7] was 0.0006 µM. The EC50 [3, 6] was 0.00055 µM and the IC50 [4] was 0.00389 µM.

For `Cc1nc2ccc(Oc3ccc(Br)cc3F)nc2c(=O)n1C[C@H]1CCCN(CCCCF)C1` [(S)-12, (S)-6-(4-Bromo-2-fluorophenoxy)-3-((1-(4-fluorobutyl)piperidin-3-yl)methyl)-2-methylpyrido[3,2-d]pyrimidin-4(3H)-one], the “CHI IAM” value [2] was 43.3, the Ki (human α3β4 nAChR) was 0.064 ± 0.014 µM and the IC50 [4] was 0.574 µM.

In the case of `Cc1nc2ccc(Oc3ccc(Br)cc3)nc2c(=O)n1C[C@H]1CCCN(C(C)C)C1` [(S)-14], the IC50 [1, 5] is reported as 0.123 µM, the Emax [1] is reported as 57 ± 6% and the “CHI IAM” value [2] is reported as 42.8. For the same molecule, the Emax [3] was 42 ± 4%, the EC50 [3, 6] was 0.00214 µM and the IC50 [4] was 0.0123 µM.

`CC(C)N1CCC[C@H](Cn2c(F)nc3ccc(Oc4ccc(Br)cc4F)nc3c2=O)C1` [(S)-17, (S)-6-(4-Bromo-2-fluorophenoxy)-2-fluoro-3-((1-isopropylpiperidin-3-yl)methyl)pyrido[3,2-d]pyrimidin-4(3H)-one] gave an IC50 [4] of 0.151 µM.

With `CC(C)N1CCC[C@H](Cn2cnc3ccc(Oc4ccc(Br)cc4F)nc3c2=O)C1` [(S)-16, (S)-6-(4-Bromo-2-fluorophenoxy)-3-((1-isopropylpiperidin-3-yl)methyl)pyrido[3,2-d]pyrimidin-4(3H)-one] the IC50 [1, 5] was 0.0287 µM, the Emax [1] was 65 ± 5% and the “CHI IAM” value [2] was 42.3. For the same molecule, the Emax [3] was 40 ± 4%, the EC50 [3, 6] was 0.00102 µM and the IC50 [4] was 0.00269 µM.

In the case of `Cc1nc2ccc(Oc3ccc(Br)cc3F)nc2c(=O)n1C[C@H]1CCCN(C(C)CF)C1` (stereo partly drawn) [(S)-13, 6-(4-Bromo-2-fluorophenoxy)-3-(((3S)-1-(1-fluoropropan-2-yl)piperidin-3-yl)methyl)-2-methylpyrido[3,2-d]pyrimidin-4(3H)-one], the IC50 [1, 5] is reported as 0.207 µM, the Emax [1] is reported as 31 ± 5% and the IC50 ([1]; mean ± SEM, with 10^-8 M ghrelin, read-out: pIC50 (antagonistic potency) (converted)) is reported as 0.204 µM. For the same molecule, the “CHI IAM” value [2] was 42.8, the Emax [3] was roughly 60% and the EC50 [3, 7] was 0.0014 µM. The EC50 [3, 6] was 0.00135 µM and the IC50 [4] was 0.0126 µM.
